In PubChem BioAssay (NCI):
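Interpolation was linear, between the two tested concentrations surrounding the appropriate level; five concentrations were tested over 48 hours in 96-well plates. GI50 is the concentration that inhibits growth by half. TGI: concentration producing complete growth inhibition.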

Columns and labels:
Assay in all cases: growth of human tumour cells (NCI), 48 h
MCF7 breast = system: MCF7 breast
KM12 colon = system: KM12 colon
SF-268 CNS = system: SF-268 CNS
PC-3 prostate = system: PC-3 prostate
UACC-257 melanoma = system: UACC-257 melanoma
SW-620 colon = system: SW-620 colon
HCC-2998 colon = system: HCC-2998 colon
NCI-H460 lung = system: NCI-H460 lung
OVCAR-8 ovarian = system: OVCAR-8 ovarian
OVCAR-3 ovarian = system: OVCAR-3 ovarian
SF-295 CNS = system: SF-295 CNS
MOLT-4 leukemia = system: MOLT-4 leukemia
DU-145 prostate = system: DU-145 prostate
HCT-116 colon = system: HCT-116 colon
RXF 393 renal = system: RXF 393 renal
SF-539 CNS = system: SF-539 CNS
SN12C renal = system: SN12C renal
NCI-H23 lung = system: NCI-H23 lung
RPMI-8226 leukemia = system: RPMI-8226 leukemia
IGROV1 ovarian = system: IGROV1 ovarian
SK-OV-3 ovarian = system: SK-OV-3 ovarian
SNB-19 CNS = system: SNB-19 CNS
OVCAR-4 ovarian = system: OVCAR-4 ovarian
MALME-3M melanoma = system: MALME-3M melanoma
M14 melanoma = system: M14 melanoma
NCI-H522 lung = system: NCI-H522 lung
SK-MEL-5 melanoma = system: SK-MEL-5 melanoma
SK-MEL-28 melanoma = system: SK-MEL-28 melanoma
ACHN renal = system: ACHN renal
HT29 colon = system: HT29 colon
U251 CNS = system: U251 CNS
TK-10 renal = system: TK-10 renal
A498 renal = system: A498 renal
NCI-H226 lung = system: NCI-H226 lung
OVCAR-5 ovarian = system: OVCAR-5 ovarian
CCRF-CEM leukemia = system: CCRF-CEM leukemia
SNB-75 CNS = system: SNB-75 CNS
786-0 renal = system: 786-0 renal
UACC-62 melanoma = system: UACC-62 melanoma
UO-31 renal = system: UO-31 renal
K-562 leukemia = system: K-562 leukemia
BT-549 breast = system: BT-549 breast
CAKI-1 renal = system: CAKI-1 renal
HCT-15 colon = system: HCT-15 colon
LOX IMVI melanoma = system: LOX IMVI melanoma
NCI/ADR-RES ovarian = system: NCI/ADR-RES ovarian
MDA-MB-231 breast = system: MDA-MB-231 breast
HOP-62 NSCLC = system: HOP-62 NSCLC
SK-MEL-2 melanoma = system: SK-MEL-2 melanoma
T-47D breast = system: T-47D breast
EKVX NSCLC = system: EKVX NSCLC
HOP-92 NSCLC = system: HOP-92 NSCLC
MDA-MB-435 = system: MDA-MB-435

## COc1cc(/C=C2\CC3C4CC=C5C[C@@H](N6CCCC6)CC[C@]5(C)C4CC[C@]3(C)[C@H]2OC(C)=O)ccc1OCCN1CCCCC1 (stereo partly specified)
MCF7 breast
  GI50: 3.02 µM
  TGI: > 100 µM
KM12 colon
  GI50: 0.54 µM
  TGI: 1.4 µM
SF-268 CNS
  GI50: 2.26 µM
  TGI: 5.6 µM
PC-3 prostate
  GI50: 1.54 µM
  TGI: 3.72 µM
UACC-257 melanoma
  GI50: 1.93 µM
  TGI: 3.91 µM
SW-620 colon
  GI50: 0.777 µM
  TGI: 2.09 µM
HCC-2998 colon
  GI50: 0.397 µM
  TGI: 0.85 µM
NCI-H460 lung
  GI50: 3.18 µM
  TGI: > 100 µM
OVCAR-8 ovarian
  GI50: 1.8 µM
  TGI: 3.42 µM
OVCAR-3 ovarian
  GI50: 1.64 µM
  TGI: 3.34 µM
SF-295 CNS
  GI50: 1.85 µM
  TGI: 3.44 µM
MOLT-4 leukemia
  GI50: 0.036 µM
  TGI: 0.638 µM
DU-145 prostate
  GI50: 1.57 µM
  TGI: 3.67 µM
HCT-116 colon
  GI50: 0.275 µM
  TGI: 0.85 µM
RXF 393 renal
  GI50: 1.63 µM
  TGI: 3.64 µM
SF-539 CNS
  GI50: 1.66 µM
  TGI: 3.16 µM
SN12C renal
  GI50: 0.775 µM
  TGI: 2.56 µM
NCI-H23 lung
  GI50: 1.68 µM
  TGI: 3.14 µM
RPMI-8226 leukemia
  GI50: 0.0109 µM
  TGI: 0.119 µM
IGROV1 ovarian
  GI50: 1.59 µM
  TGI: 3.23 µM
SK-OV-3 ovarian
  GI50: 2.15 µM
  TGI: 4.39 µM
SNB-19 CNS
  GI50: 2.84 µM
  TGI: 5.83 µM
OVCAR-4 ovarian
  GI50: 3.03 µM
  TGI: 8.98 µM
MALME-3M melanoma
  GI50: 0.164 µM
  TGI: 0.529 µM
M14 melanoma
  GI50: 1.58 µM
  TGI: 3 µM
NCI-H522 lung
  GI50: 1.67 µM
  TGI: 3.24 µM
SK-MEL-5 melanoma
  GI50: 1.53 µM
  TGI: 2.87 µM
SK-MEL-28 melanoma
  GI50: 2.31 µM
  TGI: 4.8 µM
ACHN renal
  GI50: 1.91 µM
  TGI: 3.73 µM
HT29 colon
  GI50: 1.55 µM
  TGI: > 100 µM
U251 CNS
  GI50: 1.55 µM
  TGI: 3.02 µM
TK-10 renal
  GI50: 0.211 µM
  TGI: 1.49 µM
A498 renal
  GI50: 1.76 µM
  TGI: 3.41 µM
NCI-H226 lung
  GI50: 2.14 µM
  TGI: 4.21 µM
OVCAR-5 ovarian
  GI50: 1.46 µM
  TGI: 2.85 µM
CCRF-CEM leukemia
  GI50: 0.0346 µM
  TGI: 0.777 µM
SNB-75 CNS
  GI50: 2.56 µM
  TGI: 5.03 µM
786-0 renal
  GI50: 0.217 µM
  TGI: 1.89 µM
UACC-62 melanoma
  GI50: 1.44 µM
  TGI: 2.81 µM
UO-31 renal
  GI50: 1.46 µM
  TGI: 2.83 µM
K-562 leukemia
  GI50: 0.105 µM
  TGI: 0.71 µM
BT-549 breast
  GI50: 2.25 µM
  TGI: 4.13 µM
CAKI-1 renal
  GI50: 1.95 µM
  TGI: 3.95 µM
HCT-15 colon
  GI50: 1.37 µM
  TGI: 2.8 µM
LOX IMVI melanoma
  GI50: 1.03 µM
  TGI: 2.57 µM
NCI/ADR-RES ovarian
  GI50: 1.74 µM
  TGI: 3.2 µM
MDA-MB-231 breast
  GI50: 2.27 µM
  TGI: 4.1 µM
HOP-62 NSCLC
  GI50: 1.49 µM
  TGI: 2.87 µM
SK-MEL-2 melanoma
  GI50: 1.87 µM
  TGI: 3.36 µM
T-47D breast
  GI50: 2.25 µM
  TGI: 3.98 µM
EKVX NSCLC
  GI50: 1.99 µM
  TGI: 4.3 µM
HOP-92 NSCLC
  GI50: 0.257 µM
  TGI: 1.77 µM
MDA-MB-435
  GI50: 1.83 µM
  TGI: 3.44 µM
